From ChEMBL document CHEMBL2321810, “QSAR investigation of NaV1.7 active compounds using the SVM/Signature approach and the Bioclipse Modeling platform” (Bioorg Med Chem Lett, 2013) come the findings set out here.

In this assay the target is Sodium channel protein type 9 subunit alpha (Homo sapiens, UniProt Q15858). Briefly: cell-based.
Chain of Sodium channel protein type 9 subunit alpha (Q15858 whole entry): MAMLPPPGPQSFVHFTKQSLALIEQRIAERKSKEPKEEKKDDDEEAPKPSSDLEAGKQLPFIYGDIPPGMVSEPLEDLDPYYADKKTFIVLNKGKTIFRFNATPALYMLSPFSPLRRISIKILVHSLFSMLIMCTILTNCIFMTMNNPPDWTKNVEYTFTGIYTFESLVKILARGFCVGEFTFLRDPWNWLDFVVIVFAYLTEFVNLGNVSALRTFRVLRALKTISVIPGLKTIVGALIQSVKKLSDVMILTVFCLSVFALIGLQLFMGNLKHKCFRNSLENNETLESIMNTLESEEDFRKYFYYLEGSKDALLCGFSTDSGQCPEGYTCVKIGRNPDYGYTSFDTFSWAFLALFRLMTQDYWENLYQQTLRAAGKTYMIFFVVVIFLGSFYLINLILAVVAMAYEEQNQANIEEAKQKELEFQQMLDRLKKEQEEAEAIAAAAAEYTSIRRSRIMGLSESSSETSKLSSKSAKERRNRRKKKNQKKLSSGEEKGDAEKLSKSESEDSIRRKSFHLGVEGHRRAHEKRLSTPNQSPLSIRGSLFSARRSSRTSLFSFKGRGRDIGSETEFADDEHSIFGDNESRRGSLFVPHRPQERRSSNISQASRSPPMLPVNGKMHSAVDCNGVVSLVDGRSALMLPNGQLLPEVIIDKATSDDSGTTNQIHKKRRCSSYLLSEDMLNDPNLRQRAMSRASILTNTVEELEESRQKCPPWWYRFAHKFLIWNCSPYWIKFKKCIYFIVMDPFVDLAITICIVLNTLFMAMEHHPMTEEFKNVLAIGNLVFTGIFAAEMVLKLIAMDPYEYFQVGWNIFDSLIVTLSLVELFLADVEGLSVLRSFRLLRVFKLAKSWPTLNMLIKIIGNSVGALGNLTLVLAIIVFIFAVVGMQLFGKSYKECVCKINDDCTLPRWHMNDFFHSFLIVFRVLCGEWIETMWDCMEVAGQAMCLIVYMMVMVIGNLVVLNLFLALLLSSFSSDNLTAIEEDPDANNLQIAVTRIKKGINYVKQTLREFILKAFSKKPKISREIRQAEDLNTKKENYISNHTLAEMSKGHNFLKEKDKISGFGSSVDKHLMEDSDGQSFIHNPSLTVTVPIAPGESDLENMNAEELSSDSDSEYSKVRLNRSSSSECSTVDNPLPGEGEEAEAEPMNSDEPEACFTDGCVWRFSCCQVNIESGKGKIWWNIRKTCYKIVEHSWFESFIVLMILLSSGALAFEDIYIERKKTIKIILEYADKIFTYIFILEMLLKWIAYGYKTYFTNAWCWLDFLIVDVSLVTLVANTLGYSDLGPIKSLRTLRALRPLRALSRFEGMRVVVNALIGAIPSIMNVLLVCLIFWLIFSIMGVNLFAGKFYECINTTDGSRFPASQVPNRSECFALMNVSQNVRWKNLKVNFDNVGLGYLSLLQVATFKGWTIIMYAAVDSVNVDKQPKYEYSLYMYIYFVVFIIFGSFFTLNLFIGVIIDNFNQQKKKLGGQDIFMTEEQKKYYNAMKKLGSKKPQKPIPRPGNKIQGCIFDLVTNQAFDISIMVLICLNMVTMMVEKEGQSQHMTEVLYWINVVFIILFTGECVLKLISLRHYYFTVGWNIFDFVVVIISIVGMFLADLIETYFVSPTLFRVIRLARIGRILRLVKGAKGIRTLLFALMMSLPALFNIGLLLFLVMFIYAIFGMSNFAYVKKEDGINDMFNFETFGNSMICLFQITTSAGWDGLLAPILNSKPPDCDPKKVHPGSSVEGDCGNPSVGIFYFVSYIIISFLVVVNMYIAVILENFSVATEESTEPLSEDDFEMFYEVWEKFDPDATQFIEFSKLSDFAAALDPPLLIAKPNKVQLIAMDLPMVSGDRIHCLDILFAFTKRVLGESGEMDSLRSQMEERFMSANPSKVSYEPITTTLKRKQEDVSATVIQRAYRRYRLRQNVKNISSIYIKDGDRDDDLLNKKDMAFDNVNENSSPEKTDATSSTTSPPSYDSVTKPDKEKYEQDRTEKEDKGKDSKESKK
In turn, `COc1cc(Oc2ccc(S(=O)(=O)Nc3ccc(F)cn3)cc2C#N)ccc1-n1cccn1` had an IC50 of 3000 nM. The molecule `N#Cc1cc(S(=O)(=O)Nc2nccs2)ccc1Oc1cccc(-n2ccc(C(F)(F)F)n2)c1` gave a concentration for half-maximal inhibition (IC50) of 930 nM. Then `N#Cc1cc(S(=O)(=O)Nc2nncs2)ccc1Oc1ccc(Cl)cc1-c1cc(N2CCOCC2)ncn1`, with 1000 nM; and `CCn1nc(C(F)(F)F)cc1-c1cccc(Oc2ccc(S(=O)(=O)Nc3ccc(F)cn3)cc2C#N)c1`, with 1000 nM. Then `N#Cc1cc(S(=O)(=O)Nc2nccs2)ccc1Oc1ccc(-c2cc(C3CC3)n[nH]2)c(Cl)c1`, with 1000 nM. Then `N#Cc1cc(S(=O)(=O)Nc2nccs2)ccc1Oc1ccc(-n2cc(C(N)=O)cn2)cc1`, with 1000 nM; and `N#Cc1cc(S(=O)(=O)Nc2cscn2)ccc1Oc1ccc(Cl)cc1-c1ccn(C(F)(F)F)n1`, with 1000 nM.

With `Cc1cc(C)n(-c2ccc(Oc3ccc(S(=O)(=O)Nc4nccs4)c(F)c3)cc2)n1`, the half-inhibitory concentration (IC50) is 1000 nM.

`N#Cc1cc(SNc2ncns2)ccc1Oc1ccc(F)cc1C1CC1` showed a concentration for half-maximal inhibition (IC50) of 1000 nM. As for `N#Cc1cc(S(=O)(=O)Nc2ncns2)ccc1Oc1ccc(-n2cc(COC(=O)C(F)(F)F)cn2)cc1`, the figure is 1000 nM; as for `N#Cc1cc(S(=O)(=O)Nc2ncns2)ccc1Oc1ccc(-n2cc(CO)cn2)cc1`, 1000 nM; as for `N#Cc1cc(S(=O)(=O)Nc2nccs2)ccc1Oc1ccc(-c2cc(C(F)(F)F)n(CCCF)n2)cc1F`, 1000 nM. As for `CC1CN(c2ccc(Oc3ccc(S(=O)(=O)Nc4nccs4)cc3C#N)cc2)C(=O)N1` (stereo not drawn), the figure is 1000 nM; as for `CC(C)C1CN(c2ccc(Oc3ccc(S(=O)(=O)Nc4nccs4)cc3C#N)cc2)C(=O)N1` (stereo not drawn), 1000 nM; as for `COC(=O)c1cc(Oc2ccc(S(=O)(=O)Nc3nccs3)cc2C#N)ccc1-n1cc(Cl)cn1`, 1000 nM. For the molecule `O=S(=O)(Nc1cscn1)c1cc(Cl)c(Oc2cc(C(F)(F)F)ccc2-c2cncnc2)cc1F`, inhibition was half-maximal at 1000 nM (IC50).

`Cn1cnnc1-c1cc(Cl)ccc1Oc1ccc(S(=O)(=O)Nc2nccs2)cc1F`: the IC50 is 1000 nM. Then `N#Cc1cc(S(=O)(=O)Nc2ncns2)cc(F)c1Oc1ccc(F)cc1-c1cn[nH]c1`, with 740 nM. As for `CCn1nc(C(F)(F)F)cc1-c1ccc(Oc2ccc(S(=O)(=O)Nc3nncs3)cc2C#N)cc1`, the figure is 770 nM; as for `CCn1nc(C(F)(F)F)cc1-c1ccc(Oc2ccc(S(=O)(=O)Nc3ncc(F)s3)cc2F)cc1`, 820 nM. With `Cc1cccc(-c2ccc(OC(C)C)cc2)c1Oc1ccc(S(=O)(=O)Nc2ncns2)cc1C#N`, the IC50 was 840 nM. Then `N#Cc1cc(S(=O)(=O)Nc2nccs2)ccc1Oc1ccc(Cl)cc1-c1ccccn1`, with 580 nM. Then `N#Cc1cc(S(=O)(=O)Nc2ncns2)ccc1Oc1ccccc1-c1cccc(F)c1`, with 670 nM.

Regarding `CN(C)C(=O)c1cccc(-c2ccccc2)c1Oc1ccc(S(=O)(=O)c2ncns2)cc1C#N`, inhibition was half-maximal at 740 nM (IC50). As for `N#Cc1cc(S(=O)(=O)Nc2nccs2)ccc1Oc1ccc(Cl)cc1-c1c[nH]nc1C(F)(F)F`, the figure is 430 nM; as for `N#Cc1cc(S(=O)(=O)Nc2ncc(F)s2)ccc1Oc1ccccc1-c1ccccc1`, 530 nM; as for `CC(C)(C)OC(=O)N1CCC(c2cc(Cl)ccc2Oc2ccc(S(=O)(=O)Nc3ncns3)cc2C#N)CC1`, 350 nM.

With `N#Cc1cc(S(=O)(=O)Nc2nccs2)ccc1Oc1ccc(-c2cc(C(F)(F)F)ccn2)cc1`, the IC50 was 370 nM. As for `Cc1nn(C(C)(C)C)cc1-c1cc(Cl)ccc1Oc1cc(F)c(S(=O)(=O)Nc2nncs2)cc1Cl`, the figure is 300 nM; as for `N#Cc1cc(S(=O)(=O)Nc2ncns2)ccc1Oc1cc(C(F)(F)F)nn1Cc1ccccc1`, 300 nM. For `CCn1nc(C)c(-c2ccccc2Oc2ccc(S(=O)(=O)Nc3ncns3)cc2C#N)c1C`, the IC50 was 300 nM.

For the molecule `CCOCn1nncc1-c1cc(Cl)ccc1Oc1ccc(S(=O)(=O)Nc2nccs2)cc1C#N`, half-maximal inhibition (IC50) required 300 nM. In turn, `Cn1cnc(-c2cc(Cl)ccc2Oc2ccc(S(=O)(=O)Nc3nccs3)cc2C#N)n1` had an IC50 of 300 nM. Take `O=S(=O)(Nc1cscn1)c1cc(Cl)c(Oc2ccc(C(F)(F)F)cc2-c2cncc(CO)c2)cc1F`: 300 nM corresponded to half-maximal inhibition (IC50).

For the molecule `Cn1ncnc1-c1cc(Cl)ccc1Oc1ccc(S(=O)(=O)Nc2ncc(F)s2)cc1C#N`, the midpoint of inhibition, the IC50, lay at 300 nM. Molecule `Cn1nccc1-c1cc(C(F)(F)F)ncc1Oc1ccc(S(=O)(=O)Nc2ncc(Cl)s2)cc1C#N` gave an IC50 of 220 nM. With `N#Cc1cc(S(=O)(=O)Nc2nccs2)ccc1Oc1ccc(F)cc1-c1ccc(F)nc1`, the concentration for half-maximal inhibition (IC50) is 230 nM. As for `O=S(=O)(Nc1cscn1)c1cc(Cl)c(Oc2cc(C(F)(F)F)ccc2-c2cn[nH]c2)cc1F`, the figure is 260 nM; as for `N#Cc1cc(S(=O)(=O)Nc2ncns2)ccc1Oc1ccc(C(F)(F)F)cc1C1=CN(O)CC=C1`, 110 nM; as for `CCn1nccc1-c1cc(F)ccc1Oc1ccc(S(=O)(=O)Nc2nccs2)cc1C#N`, 90 nM. As for `N#Cc1cc(S(=O)(=O)Nc2ncc(Cl)s2)ccc1Oc1ccc(Cl)cc1-c1ccnc(N)c1`, the figure is 97 nM; as for `N#Cc1cc(S(=O)(=O)Nc2nncs2)ccc1Oc1ccc(OC(F)(F)F)cc1-c1ccnnc1`, 100 nM.

`N#Cc1cc(S(=O)(=O)Nc2ccc(F)cn2)ccc1Oc1ccc(-c2cocn2)cc1`: half-maximal inhibition (IC50) required 3000 nM. As to `COc1cc(-c2ccc(Oc3ccc(S(=O)(=O)Nc4nccs4)cc3)c(F)c2)n(C)n1`, the midpoint of inhibition, the IC50, lay at 2700 nM. Then `N#Cc1cc(S(=O)(=O)Nc2ccc(F)cn2)ccc1Oc1ccccc1C1CCCCO1` (stereo not drawn), with 3000 nM; and `N#Cc1cc(S(=O)(=O)Nc2ccccc2C(F)(F)F)ccc1Oc1ccccc1-c1ccccc1`, with 3000 nM.

`CC(C)Oc1cc(-c2cc(F)ccc2Oc2ccc(S(=O)(=O)Nc3cscn3)cc2C#N)n(C)n1` gave a half-maximal inhibitory concentration (IC50) of 3000 nM. In turn, `Cc1ccc(NS(=O)(=O)c2ccc(Oc3ccccc3-c3ccccc3)c(C#N)c2)nc1` showed an IC50 of 3000 nM.

Consider `CCc1nnc(C)n1-c1ccc(Oc2ccc(S(=O)(=O)Nc3ccc(F)cn3)cc2C#N)cc1`, for which the concentration for half-maximal inhibition (IC50) is 3000 nM.

Molecule `N#Cc1cc(S(=O)(=O)Nc2ccc(F)cn2)ccc1Oc1ccc(-n2ccnc2)cc1` gave a half-maximal inhibitory concentration (IC50) of 3000 nM. Take `Cc1nc(-c2cccc(Oc3ccc(S(=O)(=O)Nc4ccc(F)cn4)cc3C#N)c2)no1`: the concentration for half-maximal inhibition (IC50) was 3000 nM. Regarding `Cc1nnc(-c2ccc(Oc3ccc(S(=O)(=O)Nc4ccc(F)cn4)cc3C#N)cc2)o1`, the IC50 was 3000 nM. As for `Cn1nccc1-c1cc(Cl)ccc1Oc1ccc(S(=O)(=O)Nc2ccon2)cc1C#N`, the figure is 1500 nM; as for `N#Cc1cc(S(=O)(=O)Nc2ncns2)ccc1Oc1ccc(-c2nc(CO)co2)cc1`, 1000 nM; as for `N#Cc1cc(S(=O)(=O)Nc2nccs2)ccc1Oc1ccc(-n2cc(F)cn2)cc1`, 1000 nM. Regarding `Cc1cc(-c2ccnn2C)ccc1Oc1ccc(S(=O)(=O)Nc2ncc(F)s2)cc1C#N`, the concentration for half-maximal inhibition (IC50) is 1100 nM. `CC(C)Oc1cc(-c2cc(F)ccc2Oc2ccc(S(=O)(=O)Nc3nccs3)cc2C#N)n(C)n1` had an IC50 of 1000 nM. Take `CCn1nc(-c2ccc(Oc3ccc(S(=O)(=O)Nc4nccs4)cc3C#N)c(F)c2)cc1C(F)(F)F`: 1000 nM corresponded to half-maximal inhibition (IC50). Then `N#Cc1cc(S(=O)(=O)Nc2nccs2)ccc1Oc1cnn(-c2ccc(Cl)cc2)c1`, with 1000 nM; and `N#Cc1cc(S(=O)(=O)Nc2nccs2)ccc1Oc1cnn(-c2ccc(Cl)cc2Cl)c1`, with 1000 nM; and `CCn1nc(C(F)(F)F)cc1-c1ccc(Oc2ccc(S(=O)(=O)Nc3ncccn3)cc2C#N)cc1`, with 1000 nM.

As to `Cn1ncnc1-c1cc(Cl)ccc1Oc1ccc(S(=O)(=O)Nc2ncc(F)s2)cc1F`, 1000 nM corresponded to half-maximal inhibition (IC50).

`CN(C)C(=O)c1cnn(-c2ccc(Oc3ccc(S(=O)(=O)Nc4nccs4)cc3C#N)cc2)c1`: the IC50 was 1000 nM.

Regarding `COCc1cnn(-c2ccc(Oc3ccc(S(=O)(=O)Nc4nccs4)cc3C#N)cc2)c1`, the concentration for half-maximal inhibition (IC50) was 1000 nM. Then `CN(C)Cc1cnn(-c2ccc(Oc3ccc(S(=O)(=O)Nc4nccs4)cc3C#N)cc2)c1`, with 1000 nM; and `CC(C)(C)NC(=O)c1cnn(-c2ccc(Oc3ccc(S(=O)(=O)Nc4nccs4)cc3C#N)cc2)c1`, with 1000 nM. Molecule `N#Cc1cc(S(=O)(=O)Nc2cscn2)ccc1Oc1ccc(Cl)cc1-n1cnc(C(F)(F)F)c1` gave a half-maximal inhibitory concentration (IC50) of 1000 nM. Then `N#Cc1cc(S(=O)(=O)Nc2cscn2)ccc1Oc1ccc(F)cc1-c1cnn(CC(F)(F)F)c1`, with 1000 nM; and `N#Cc1ccnc(NS(=O)(=O)c2ccc(Oc3ccccc3-c3ccccc3)c(C#N)c2)c1`, with 1000 nM; and `Cn1nccc1-c1cccc(Oc2ccc(S(=O)(=O)Nc3nccs3)cc2C#N)c1`, with 1000 nM.

On to `COc1cccc(-c2ccc(Oc3ccc(S(=O)(=O)Nc4nccs4)cc3C#N)cc2)n1`, for which the IC50 was 1000 nM. Consider `N#Cc1cc(S(=O)(=O)Nc2nccs2)ccc1Oc1ccc(-c2nccc(C(F)(F)F)n2)cc1`, for which half-maximal inhibition (IC50) was put at 1000 nM.

For `N#Cc1cc(S(=O)(=O)Nc2nccs2)ccc1Oc1ccc(-c2cn(CC(F)(F)F)nc2N)cc1`, inhibition was half-maximal at 1000 nM (IC50).

Turning to `Cn1cc(-c2ccc(Oc3ccc(S(=O)(=O)Nc4nccs4)cc3C#N)cc2)c(N)n1`, the IC50 was 1000 nM.

In the case of `N#Cc1cc(S(=O)(=O)Nc2nccs2)ccc1Oc1ccc(N2CCNC2=O)cc1`, the half-inhibitory concentration (IC50) is 1000 nM. Consider `CN1CCN(c2ccc(Oc3ccc(SNc4nccs4)cc3C#N)cc2)C1=O`, for which the half-inhibitory concentration (IC50) was 1000 nM. On to `N#Cc1cc(S(=O)(=O)Nc2nccs2)ccc1Oc1ccc(N2CCCC2=O)cc1`, for which the IC50 was 1000 nM. Then `N#Cc1cc(S(=O)(=O)Nc2nccs2)ccc1Oc1ccc(-n2cccn2)cc1C(F)(F)F`, with 1000 nM; and `N#Cc1cc(S(=O)(=O)Nc2nccs2)ccc1Oc1ccc(-n2cc(Cl)cn2)c(C(=O)O)c1`, with 1000 nM; and `CC(C)(C)n1ccc(-c2cc(F)ccc2Oc2cc(F)c(S(=O)(=O)Nc3cscn3)cc2Cl)n1`, with 1000 nM.

As to `Nc1nccc(-c2cc(F)ccc2Oc2cc(F)c(S(=O)(=O)Nc3ncc(Cl)s3)cc2F)n1`, inhibition was half-maximal at 1000 nM (IC50). Then `Cc1scnc1NS(=O)(=O)c1cc(Cl)c(Oc2ccc(F)cc2-c2ccnn2C)cc1F`, with 1000 nM; and `Cn1nccc1-c1ccc(Oc2ccc(S(=O)(=O)Nc3nccs3)cc2C#N)cn1`, with 1000 nM.
